Some test systems named below: Pseudomonas aeruginosa; Klebsiella pneumoniae; Acinetobacter baumannii; Escherichia coli K-12.
Assay in all cases: ≥ marks a high value that may be exact or a test limit, other limits are often not marked, values filed in µg/mL are converted to µM
Test [1] concerns Cryptococcus neoformans ATCC 208821.
In test [2] the test system is Klebsiella pneumoniae ATCC BAA-2146.
Test [3] concerns Escherichia coli ATCC 25922.
Test [4] has as its system Pseudomonas aeruginosa ATCC 27853.
Test [5] concerns Candida albicans ATCC 90028.
The test system of test [6] is Bacillus subtilis ATCC 6051.
Test [7] deals with Acinetobacter baumannii ATCC 19606.
Test [8] concerns Staphylococcus aureus ATCC 43300.
Test [9] concerns Klebsiella pneumoniae ATCC 700603.
The subject of test [10] is Klebsiella pneumoniae ATCC 13883.
Test [11] concerns Pseudomonas corrugata DSM 7228.
In test [12] the test system is Pectobacterium carotovorum subsp. carotovorum DSM 30168.
Test [13] deals with Xanthomonas vesicatoria DSM 50861.
The test system of test [14] is Pseudomonas syringae pv. tomato DC3000.
The test system of test [15] is Pseudomonas syringae pv. syringae DSM 10604.
Test [16] concerns Clavibacter michiganensis subsp. michiganensis DSM 46294.
The subject of test [17] is Staphylococcus aureus ATCC 33591.
The test system of test [18] is Candida albicans ATCC 200955.
The subject of test [19] is Enterococcus faecium ATCC 700221.
Test [20] concerns Micrococcus luteus ATCC 4698.
Test [21] deals with Pseudomonas aeruginosa PAO1.
Test [22] concerns Staphylococcus aureus NCTC 8325-4.

Ten compounds from DBAASP can be followed below.

Each structure is given as a SMILES string. Values after ≈ are worked out from the molar mass of the structure shown. A value given as a limit tells only on which side of the number the result lay.

Broadly, the MIC is the least concentration at which growth counts as inhibited. A high value points to a need for much substance. Turning to `CC[C@H](C)[C@@H]1NC(=O)CNC(=O)[C@H](CCCN=C(N)N)NC(=O)[C@H](Cc2ccc(O)cc2)NC(=O)[C@@H]2CSSC[C@H](NC1=O)C(=O)N[C@@H](Cc1ccc(O)cc1)C(=O)N[C@@H](CCCN=C(N)N)C(=O)N[C@@H](C)C(=O)N[C@H](C(=O)N[C@@H](CCCN=C(N)N)C(=O)O)CSSC[C@H](NC(=O)[C@H](Cc1c[nH]c3ccccc13)NC(=O)[C@@H](N)CCCCN)C(=O)N[C@@H](Cc1ccccc1)C(=O)N[C@@H](CCCN=C(N)N)C(=O)N[C@@H](C(C)C)C(=O)N2` [KWCFRVCYRGICYRACR], the MIC stood at 0.115 µM (≈ 0.25 µg/mL) in test [1]; 0.458 µM (≈ 0.998 µg/mL) in [2]; 0.115 µM (≈ 0.25 µg/mL) in [3]; 1.83 µM (≈ 3.99 µg/mL) in test [4]; 0.916 µM (≈ 2 µg/mL) in [5]; 0.0137 µM (≈ 0.0299 µg/mL) in [6]. For the same compound, the MIC was 0.115 µM (≈ 0.25 µg/mL) in test [7]; 1.83 µM (≈ 3.99 µg/mL) in [8]; 1.83 µM (≈ 3.99 µg/mL) in the test on Pseudomonas aeruginosa; 7.33 µM (≈ 16 µg/mL) against Klebsiella pneumoniae; 0.916 µM (≈ 2 µg/mL) in [9]; 0.115 µM (≈ 0.25 µg/mL) with Acinetobacter baumannii. In [10], the MIC was 0.115 µM (≈ 0.25 µg/mL).

Turning to `CC[C@H](C)[C@@H]1NC(=O)CNC(=O)[C@H](CCCN=C(N)N)NC(=O)[C@H](Cc2ccc(O)cc2)NC(=O)[C@@H](NC(=O)[C@@H](NC(=O)[C@H](CCCN=C(N)N)NC(=O)[C@H](Cc2ccccc2)NC(=O)[C@H](C)NC(=O)[C@H](Cc2c[nH]c3ccccc23)NC(=O)[C@@H](N)CCCCN)C(C)C)CSSC[C@@H](C(=O)N[C@@H](Cc2ccc(O)cc2)C(=O)N[C@@H](CCCN=C(N)N)C(=O)N[C@@H](CCCN=C(N)N)C(=O)N[C@@H](C)C(=O)N[C@@H](CCCN=C(N)N)C(=O)O)NC1=O` [KWAFRVCYRGICYRRAR], the MIC in test [1] came out at 0.454 µM (≈ 0.999 µg/mL); in test [2], 0.454 µM (≈ 0.999 µg/mL); in test [3] it was 0.113 µM (≈ 0.25 µg/mL); in test [4], 0.907 µM (≈ 2 µg/mL); in [5] it was 3.63 µM (≈ 7.99 µg/mL); in test [6], 0.0567 µM (≈ 0.125 µg/mL). In addition, the MIC in test [7] is 0.113 µM (≈ 0.25 µg/mL); in test [8] it was 3.63 µM (≈ 7.99 µg/mL); in the test on Pseudomonas aeruginosa, 3.63 µM (≈ 7.99 µg/mL); against Klebsiella pneumoniae, > 7.26 µM; in [9], 0.454 µM (≈ 0.999 µg/mL); in the test on Acinetobacter baumannii, 0.227 µM (≈ 0.5 µg/mL). The same compound showed an MIC in test [10] of 0.454 µM (≈ 0.999 µg/mL).

In the case of `CC[C@H](C)[C@H](NC(=O)[C@H](CC(C)C)NC(=O)[C@H](CCCN=C(N)N)NC(=O)[C@H](CCCCN)NC(=O)[C@H](CC(C)C)NC(=O)[C@H](CC(C)C)NC(=O)[C@H](CCCCN)NC(=O)[C@H](CCCCN)NC(=O)[C@H](CCCN=C(N)N)NC(=O)[C@@H](N)CCCCN)C(N)=O` [KRKKLLKRLI], the MIC in test [11] was 0.386 µM (≈ 0.5 µg/mL); in test [12], 7.72 µM (≈ 9.99 µg/mL); in [13] it was 7.72 µM (≈ 9.99 µg/mL); in test [14] it was 0.772 µM (≈ 0.999 µg/mL); in [15] it was 0.0772 µM (≈ 0.1 µg/mL); in test [16] it was 7.72 µM (≈ 9.99 µg/mL).

Take `CC[C@H](C)[C@H](NC(=O)[C@H](Cc1c[nH]c2ccccc12)NC(=O)[C@H](CCCCN)NC(=O)[C@H](CC(C)C)NC(=O)[C@H](CC(C)C)NC(=O)CN)C(=O)N[C@@H](CCCCN)C(=O)N[C@@H](CCCCN)C(=O)N[C@@H](CC(C)C)C(=O)N[C@@H](CC(C)C)C(N)=O` [GLLKWIKKLL]: the MIC in test [17] is 2.5 µM (≈ 3.03 µg/mL); in test [3], 3.2 µM (≈ 3.87 µg/mL); in [4], 9.5 µM (≈ 11.5 µg/mL); in test [18], 3.2 µM (≈ 3.87 µg/mL); in [19], 3.2 µM (≈ 3.87 µg/mL).

With `CC[C@H](C)[C@@H]1NC(=O)CNC(=O)[C@H](CCCN=C(N)N)NC(=O)[C@H](Cc2ccc(O)cc2)NC(=O)[C@@H]2CSSC[C@H](NC1=O)C(=O)N[C@@H](Cc1ccc(O)cc1)C(=O)N[C@@H](CCCN=C(N)N)C(=O)N[C@@H](CCCN=C(N)N)C(=O)N[C@H](C(=O)N[C@@H](CCCN=C(N)N)C(=O)O)CSSC[C@H](NC(=O)[C@H](Cc1c[nH]c3ccccc13)NC(=O)[C@@H](N)CCCCN)C(=O)N[C@@H](Cc1ccccc1)C(=O)N[C@@H](C)C(=O)N[C@@H](C(C)C)C(=O)N2` [KWCFAVCYRGICYRRCR], the MIC in test [1] was found to be 0.115 µM (≈ 0.25 µg/mL); in test [2], 0.229 µM (≈ 0.499 µg/mL); in [3] it was 0.0572 µM (≈ 0.125 µg/mL); in [4], 0.115 µM (≈ 0.25 µg/mL); in test [5], 1.83 µM (≈ 3.99 µg/mL); in test [6], 0.0137 µM (≈ 0.0299 µg/mL). The MIC amounted to 0.0275 µM (≈ 0.0599 µg/mL) in test [7]; 0.229 µM (≈ 0.499 µg/mL) in [8]; 0.229 µM (≈ 0.499 µg/mL) in the test on Pseudomonas aeruginosa; 3.66 µM (≈ 7.99 µg/mL) in the test on Klebsiella pneumoniae; 0.229 µM (≈ 0.499 µg/mL) in test [9]; 0.0572 µM (≈ 0.125 µg/mL) with Acinetobacter baumannii. In addition, the MIC in test [10] is 0.0572 µM (≈ 0.125 µg/mL).

Regarding `CC(C)[C@@H]1NC(=O)[C@H](CCCN=C(N)N)NC(=O)[C@H](Cc2ccccc2)NC(=O)[C@@H](NC(=O)[C@H](Cc2c[nH]c3ccccc23)NC(=O)[C@@H](N)CCCCN)CSSC[C@@H](C(=O)N[C@@H](CCCN=C(N)N)C(=O)O)NC(=O)[C@H](CCCN=C(N)N)NC(=O)[C@H](CCCN=C(N)N)NC(=O)[C@H](Cc2ccc(O)cc2)NC(=O)[C@@H]2CSSC[C@H](NC1=O)C(=O)N[C@@H](Cc1ccc(O)cc1)C(=O)N[C@@H](CCCN=C(N)N)C(=O)NCC(=O)NCC(=O)N2` [KWCFRVCYRGGCYRRCR], the minimum inhibitory concentration (MIC) in test [1] turned out to be 0.452 µM (≈ 0.998 µg/mL); in test [2], 0.904 µM (≈ 2 µg/mL); in [3], 0.113 µM (≈ 0.25 µg/mL); in test [4], 0.452 µM (≈ 0.998 µg/mL); in test [5], 3.62 µM (≈ 7.99 µg/mL); in [6], 0.113 µM (≈ 0.25 µg/mL). For the same compound, the MIC in test [7] came to 0.226 µM (≈ 0.499 µg/mL); in [8] it was 1.81 µM (≈ 3.99 µg/mL); in the test with Pseudomonas aeruginosa, 1.81 µM (≈ 3.99 µg/mL); against Klebsiella pneumoniae, 3.62 µM (≈ 7.99 µg/mL); in [9] it was 0.226 µM (≈ 0.499 µg/mL); against Acinetobacter baumannii, 0.226 µM (≈ 0.499 µg/mL). This compound yielded an MIC in test [10] of 0.113 µM (≈ 0.25 µg/mL).

On to `CC[C@H](C)[C@H](NC(=O)[C@H](CO)NC(=O)[C@H](CCCCN)NC(=O)[C@H](CO)NC(=O)[C@H](Cc1cnc[nH]1)NC(=O)[C@H](CCCN=C(N)N)NC(=O)[C@H](Cc1cnc[nH]1)NC(=O)[C@H](CO)NC(=O)[C@H](CCC(N)=O)NC(=O)[C@H](Cc1ccc(O)cc1)NC(=O)[C@H](CC(N)=O)NC(=O)[C@H](CC(N)=O)NC(=O)[C@@H]1CCCN1C(=O)[C@H](CO)NC(=O)CNC(=O)[C@H](Cc1ccccc1)NC(=O)CN)C(=O)N1CCC[C@H]1C(=O)NCC(=O)N[C@@H](CCCN=C(N)N)C(=O)O` [GFGSPNNYQSHRHSKSIPGR], for which the MIC in test [20] was ≥ 75 µM.

On to `CC[C@H](C)[C@H](NC(=O)[C@H](CC(C)C)NC(=O)[C@H](CCCCN)NC(=O)[C@H](CCCCN)NC(=O)[C@@H](NC(=O)[C@@H](NC(=O)[C@H](CCCCN)NC(=O)[C@H](CCCCN)NC(=O)[C@H](CCCCN)NC(=O)[C@H](CCCCN)NC(=O)[C@H](CCCCN)NC(=O)[C@@H](N)CCCN=C(N)N)[C@@H](C)CC)[C@@H](C)CC)C(N)=O` [RKKKKKIIKKLI], for which the MIC in test [11] was determined as 1.64 µM (≈ 2.5 µg/mL); in test [12] it was 6.56 µM (≈ 9.99 µg/mL); in [13] it was 6.56 µM (≈ 9.99 µg/mL); in [14], 1.64 µM (≈ 2.5 µg/mL); in test [15], 0.328 µM (≈ 0.5 µg/mL); in test [16], 6.56 µM (≈ 9.99 µg/mL).

For `CC(C)C[C@H](NC(=O)[C@H](CC(C)C)NC(=O)[C@H](CCCN=C(N)N)NC(=O)[C@H](CCCCN)NC(=O)[C@H](CC(C)C)NC(=O)[C@H](CC(C)C)NC(=O)[C@H](CCCCN)NC(=O)[C@H](CCCCN)NC(=O)[C@H](CCCN=C(N)N)NC(=O)[C@@H](N)CCCCN)C(N)=O` [KRKKLLKRLL], the MIC in test [11] was 0.0772 µM (≈ 0.1 µg/mL); in test [12] it was 7.72 µM (≈ 9.99 µg/mL); in test [13], 3.86 µM (≈ 5 µg/mL); in test [14], 0.772 µM (≈ 0.999 µg/mL); in [15] it was 0.0772 µM (≈ 0.1 µg/mL); in test [16], 3.86 µM (≈ 5 µg/mL).

In the case of `CC(C)C[C@H](NC(=O)[C@H](CCCCN)NC(=O)[C@H](CCCCN)NC(=O)[C@H](CC(C)C)NC(=O)[C@H](CC(C)C)NC(=O)[C@H](CCCCN)NC(=O)[C@H](CCCCN)NC(=O)[C@@H](N)CC(C)C)C(N)=O` [LKKLLKKL], the MIC in the test with Klebsiella pneumoniae was > 500 µM; in [21], > 500 µM; in [22], ≥ 500 µM; with Escherichia coli K-12, ≥ 500 µM.
